Measurements: article PMC10108347, “Heterobifunctional Ligase Recruiters Enable pan-Degradation of Inhibitor of Apoptosis Proteins” (Journal of Medicinal Chemistry, 2023)
Entries after “also recorded” stand apart in the source; their conditions may differ. Where two headings read alike, the source gives them in different places.

Key:
RPMI-8826 = assay: CellTiter-Glo cell viability assay, RPMI-8826; assay type: cell-based
Procedure: (§1) As TNF-α and related signaling cascades represent crucial factors for the single-agent activity of IAP-targeting compounds,[29],[38],[39],[55] the viability inhibition of sensitive cell lines was evaluated in the presence and absence of this inflammatory stimulus. […] These effects were independent of IAP baseline levels (Figure S16), which is in agreement with the previous studies of IAP antagonists.
(§2) Cells were seeded in 384-well plates with respective treatments, and plates were incubated at 37 °C for 96 h. Viability assays were performed with or without the addition of TNF-α at 1 ng/mL. The cell viability readout was measured using the CellTiter-Glo Luminescent Cell Viability Assay (Promega, Madison, USA) and measured with a Synergy LX Multi-Mode plate reader (BioTek, Vermont, USA). All conditions were normalized to the DMSO-treated control. Data represents the mean ± SD of biological triplicates.

JJN3 = assay: CellTiter-Glo cell viability assay, JJN3; assay type: cell-based
Procedure: as §1, §2

NCI-H929 = assay: CellTiter-Glo cell viability assay, NCI-H929; assay type: cell-based
Procedure: as §1, §2

HEL = assay: CellTiter-Glo cell viability assay, HEL; assay type: cell-based
Procedure: as §1, §2

K562 = assay: CellTiter-Glo cell viability assay, K562; assay type: cell-based
Procedure: as §1, §2

MOLM13 = assay: CellTiter-Glo cell viability assay, MOLM13; assay type: cell-based
Procedure: as §1, §2

SUDHL4 = assay: CellTiter-Glo cell viability assay, SUDHL4; assay type: cell-based
Procedure: as §1, §2

DB = assay: CellTiter-Glo cell viability assay, DB; assay type: cell-based
Procedure: as §1, §2

SUDHL6 = assay: CellTiter-Glo cell viability assay, SUDHL6; assay type: cell-based
Procedure: as §1, §2

[1] = Log D7.4 measurement by chromatographic (fast-gradient HPLC) method; conditions: pH 7.4
Procedure: The system was calibrated by plotting the retention times of six different drugs (atenolol, metoprolol, labetalol, diltiazem, triphenylene, and permethrin) versus their literature-known log D7.4 in a calibration line (R^2 = 0.99). Subsequently, the mean retention times of the analytes were taken to calculate their log D7.4 values with the aid of the calibration line. At least two independent measurements of each analyte were performed.

XIAP = XIAP (Homo sapiens, UniProt P98170); assay: Immunoblotting (western blot) quantification of XIAP levels in MM.1S cells; conditions: MM.1S cells, 16 h, western blot, 0.1 or 1 μM
Chain of XIAP (P98170 whole entry): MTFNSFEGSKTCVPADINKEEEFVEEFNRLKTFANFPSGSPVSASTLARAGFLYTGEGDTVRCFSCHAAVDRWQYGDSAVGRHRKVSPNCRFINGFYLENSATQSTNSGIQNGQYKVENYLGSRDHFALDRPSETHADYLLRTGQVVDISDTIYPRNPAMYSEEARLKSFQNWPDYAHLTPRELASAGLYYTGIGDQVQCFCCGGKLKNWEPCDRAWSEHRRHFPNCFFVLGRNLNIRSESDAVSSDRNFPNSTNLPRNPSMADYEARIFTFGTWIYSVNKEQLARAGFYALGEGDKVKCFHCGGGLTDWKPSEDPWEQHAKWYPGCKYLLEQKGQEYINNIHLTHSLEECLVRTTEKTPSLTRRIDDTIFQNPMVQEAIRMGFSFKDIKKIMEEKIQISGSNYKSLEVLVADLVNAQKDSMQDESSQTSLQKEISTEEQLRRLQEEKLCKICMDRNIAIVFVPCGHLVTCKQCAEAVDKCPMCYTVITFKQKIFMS

cIAP2 = cIAP2 (Homo sapiens, UniProt Q13489); assay: Immunoblotting (western blot) quantification of cIAP2 levels in MM.1S cells; conditions: MM.1S cells
Chain of cIAP2 (Q13489 whole entry): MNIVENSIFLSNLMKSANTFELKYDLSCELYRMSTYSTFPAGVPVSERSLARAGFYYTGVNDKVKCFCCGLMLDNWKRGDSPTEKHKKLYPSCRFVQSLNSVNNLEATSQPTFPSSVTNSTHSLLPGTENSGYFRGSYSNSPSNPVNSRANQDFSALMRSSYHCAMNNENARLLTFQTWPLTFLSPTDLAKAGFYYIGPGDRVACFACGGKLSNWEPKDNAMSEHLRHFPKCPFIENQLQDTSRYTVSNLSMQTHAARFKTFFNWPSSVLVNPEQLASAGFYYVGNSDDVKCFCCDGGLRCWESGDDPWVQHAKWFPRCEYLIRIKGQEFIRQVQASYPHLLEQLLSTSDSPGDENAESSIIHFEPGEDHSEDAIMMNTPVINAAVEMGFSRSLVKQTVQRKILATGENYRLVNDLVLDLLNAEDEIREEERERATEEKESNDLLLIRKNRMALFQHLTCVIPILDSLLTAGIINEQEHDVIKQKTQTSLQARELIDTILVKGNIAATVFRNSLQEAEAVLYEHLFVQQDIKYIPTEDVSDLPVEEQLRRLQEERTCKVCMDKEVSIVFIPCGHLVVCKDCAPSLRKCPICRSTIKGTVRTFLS
Procedure: To evaluate the capability of our panel of hetero-PROTACs for E3 ligase degradation, VHL19, VHL30, CRBN, cIAP1, cIAP2, and XIAP levels were quantified by western blot analyses. […] SDS-PAGE was performed, and proteins were then transferred onto PVDF membranes. Blotted membranes were blocked with 5% milk in Tris-buffered saline/Tween20 (TBST). Primary antibodies were diluted in 5% BSA in TBST, and incubations were performed overnight at 4 °C. Secondary HRP-conjugated antibodies diluted in 5% milk were incubated for 1 h at room temperature. Detection of proteins on PVDF was carried out using the WesternBright ECL HRP substrate or the WesternBright Sirius HRP substrate (Advansta, San Jose, USA) and imaged with LAS 4000× (Fujifilm). Membranes were subjected to 10 min incubation with Restore Western Blot Stripping Buffer (Thermo Fisher Scientific, Waltham, USA), followed by TBST washes. After brief re-activation with methanol, the membranes were blocked, and further probing of proteins was carried out.
Quantification of blots was performed using ImageJ software (National Institutes of Health).

[2] = system: IAPs (cIAP1, cIAP2, XIAP); assay: Immunoblotting of IAPs in MM.1S cells, overall degradation profile, time course and washout; assay type: cell-based; conditions: 16 h, western blot, concentration (10 nM to 1 μM)
Procedure: Next, we examined the persistence of IAP degradation in MM.1S cells after a single exposure to 1 μM of 9 and subsequent removal of the compound. […] The reliance on CRL2^VHL was assessed with a neddylation inhibitor MLN4924, which blocks the activity of CRLs (Figure S13A).

[3] = SI csv, head prints only the cell line, no quantity or unit, values parallel Table 1/S8, read-out: RPMI-8826
[4] = Homo sapiens, JJN-3, SI csv, head prints only the cell line, no quantity or unit, values parallel Table 1/S8, read-out: JJN3
[5] = Homo sapiens, SI csv, head prints only the cell line, no quantity or unit, values parallel Table 1/S8, read-out: NCI-H929
[6] = Homo sapiens, SI csv, head prints only the cell line, no quantity or unit, values parallel Table 1/S8, read-out: K562
[7] = Homo sapiens, SU-DHL-4, SI csv, head prints only the cell line, no quantity or unit, values parallel Table 1/S8, read-out: SUDHL4
[8] = MM cell line, 96 h, TNFα-challenged, read-out: IC50 cell viability RPMI-8826

Compound: CN[C@@H](C)C(=O)N[C@H](C(=O)N1C[C@@H](Oc2cccc(OCCOCCCCCCOCCCCCCNc3cccc4c3C(=O)N(C3CCC(=O)N(C)C3=O)C4=O)c2)C[C@H]1C(=O)N[C@@H]1CCCc2ccccc21)C1CCCCC1 (stereo partly drawn) [PROTAC 28, (2S,4S)-1-((S)-2-Cyclohexyl-2-((S)-2-(methylamino)propanamido)acetyl)-4-(3-(2-((6-((6-((2-(1-methyl-2,6-dioxopiperidin-3-yl)-1,3-dioxoisoindolin-4-yl)amino)hexyl)oxy)hexyl)oxy)ethoxy)phenoxy)-N-((R)-1,2,3,4-tetrahydronaphthalen-1-yl)pyrrolidine-2-carboxamide]
- IC50 (RPMI-8826; [3]): 1.01 µM
- IC50 (JJN3; [4]): 0.9 µM
- IC50 (NCI-H929; [5]): 1.99 µM
- IC50 (HEL; Homo sapiens, SI csv, head prints only the cell line, no quantity or unit, values parallel Table 1/S8, read-out: HEL): 0.77 µM
- IC50 (K562; [6]): 0.84 µM
- IC50 (MOLM13; Homo sapiens, MOLM-13, SI csv, head prints only the cell line, no quantity or unit, values parallel Table 1/S8, read-out: MOLM13): 0.63 µM
- IC50 (SUDHL4; [7]): 1 µM
- IC50 (DB; Homo sapiens, SI csv, head prints only the cell line, no quantity or unit, values parallel Table 1/S8, read-out: DB): 0.57 µM
- IC50 (SUDHL6; Homo sapiens, SU-DHL-6, SI csv, head prints only the cell line, no quantity or unit, values parallel Table 1/S8, read-out: SUDHL6): 0.44 µM
- chromatographic logD [1]: 6
- XIAP degradation (in words) (XIAP): failed to degrade XIAP at 1 μM concentration; also recorded: only marginally degrades XIAP
- remaining protein cIAP2 (cIAP2; 16 h, 1 μM): 32%

Compound: CN[C@@H](C)C(=O)N[C@H](C(=O)N1C[C@@H](Oc2cccc(OCCCCC(=O)N[C@H](C(=O)N3C[C@@H](O)C[C@H]3C(=O)NCc3ccc(-c4scnc4C)cc3)C(C)(C)C)c2)C[C@H]1C(=O)N[C@@H]1CCCc2ccccc21)C1CCCCC1 [PROTAC 11, (2S,4S)-1-((S)-2-Cyclohexyl-2-((S)-2-(methylamino)propanamido)acetyl)-4-(3-((5-(((S)-1-((2S,4S)-4-hydroxy-2-((4-(4-methylthiazol-5-yl)benzyl)carbamoyl)pyrrolidin-1-yl)-3,3-dimethyl-1-oxobutan-2-yl)amino)-5-oxopentyl)oxy)phenoxy)-N-((R)-1,2,3,4-tetrahydronaphthalen-1-yl)pyrrolidine-2-carboxamide]
- IAP degradation profile (in words) [2]: induce only cIAP1 degradation; also recorded: only induced cIAP1 degradation
- IC50 (RPMI-8826; [8]): > 5 µM
- IC50 (RPMI-8826; [3]): > 10 µM
- IC50 (JJN3; Homo sapiens, JJN-3, MM cell line, 96 h, TNFα-challenged, read-out: IC50 cell viability JJN3): > 5 µM
- IC50 (JJN3; [4]): > 10 µM
- IC50 (NCI-H929; Homo sapiens, NCI-H929, MM cell line, 96 h, TNFα-challenged, read-out: IC50 cell viability NCI-H929): > 5 µM
- IC50 (NCI-H929; [5]): > 10 µM
- IC50 (HEL; Homo sapiens, HEL, AML cell line, 96 h, TNFα-challenged, read-out: IC50 cell viability HEL): > 10 µM
- IC50 (K562; Homo sapiens, K562, AML cell line, 96 h, TNFα-challenged, read-out: IC50 cell viability K562): > 5 µM
- IC50 (K562; [6]): > 10 µM
- IC50 (MOLM13; Homo sapiens, MOLM-13, AML cell line, 96 h, TNFα-challenged, read-out: IC50 cell viability MOLM13): > 1 µM
- IC50 (SUDHL4; Homo sapiens, SU-DHL-4, DLBCL cell line, 96 h, TNFα-challenged, read-out: IC50 cell viability SUDHL4): > 5 µM
- IC50 (SUDHL4; [7]): > 10 µM
- IC50 (DB; Homo sapiens, DB, DLBCL cell line, 96 h, TNFα-challenged, read-out: IC50 cell viability DB): > 5 µM
- IC50 (SUDHL6; Homo sapiens, SU-DHL-6, DLBCL cell line, 96 h, TNFα-challenged, read-out: IC50 cell viability SUDHL6): 0.17 µM
- chromatographic logD [1]: 3.3

Compound: VH298 [reference compound]
- IAP degradation profile (in words) [2]: did not affect the levels of IAPs; also recorded: has no effects on the investigated proteins
- IC50 (RPMI-8826; [8]): > 10 µM
- IC50 (JJN3; MM cell line, 96 h, TNFα-challenged, read-out: IC50 cell viability JJN3): > 10 µM
- IC50 (NCI-H929; MM cell line, 96 h, TNFα-challenged, read-out: IC50 cell viability NCI-H929): > 10 µM
- IC50 (HEL; AML cell line, 96 h, TNFα-challenged, read-out: IC50 cell viability HEL): > 10 µM
- IC50 (K562; AML cell line, 96 h, TNFα-challenged, read-out: IC50 cell viability K562): > 10 µM
- IC50 (MOLM13; AML cell line, 96 h, TNFα-challenged, read-out: IC50 cell viability MOLM13): > 10 µM
- IC50 (SUDHL4; DLBCL cell line, 96 h, TNFα-challenged, read-out: IC50 cell viability SUDHL4): > 10 µM
- IC50 (DB; DLBCL cell line, 96 h, TNFα-challenged, read-out: IC50 cell viability DB): > 10 µM
- IC50 (SUDHL6; DLBCL cell line, 96 h, TNFα-challenged, read-out: IC50 cell viability SUDHL6): > 10 µM
- %remaining protein cIAP2 (cIAP2; 16 h treatment at 0.1 μM, normalized to loading control and DMSO): 81%
